The text below walks through data of ChEMBL document CHEMBL1121966, “(2R*,3S*)-1-[125I]Iodo-2,3-bis(4-hydroxyphenyl)pentane ([125I]iodonorhexestrol) and (2R*,3S*)-1-[77Br]Bromo-2,3-bis(4-hydroxyphenyl)pentane ([77Br]bromonorhexestrol), two gamma-emitting estrogens that show receptor-mediated uptake by target tissues in vivo” (1982).

Each structure is given as a SMILES string.

The test is described as follows: Solvolytic stability of compound was measured relative to p-hydroxyphenethyl bromide. It is filed as functional, Rattus norvegicus.

`Oc1ccc(CCBr)cc1`: the 1/krel came out at 1.
